How the values were obtained:
Human recombinant renin = target: T1, Human recombinant renin (Homo sapiens, UniProt P00797); experiment: Inhibition of human recombinant renin (buffer assay); format: biochemical; conditions: buffer: 50 mM MOPS pH 7.4, 100 pM renin, 6 μM fluorescent peptide, 37° C., 3 hours
T1 construct: purchased Proteos
T1 sequence (P00797 67-406): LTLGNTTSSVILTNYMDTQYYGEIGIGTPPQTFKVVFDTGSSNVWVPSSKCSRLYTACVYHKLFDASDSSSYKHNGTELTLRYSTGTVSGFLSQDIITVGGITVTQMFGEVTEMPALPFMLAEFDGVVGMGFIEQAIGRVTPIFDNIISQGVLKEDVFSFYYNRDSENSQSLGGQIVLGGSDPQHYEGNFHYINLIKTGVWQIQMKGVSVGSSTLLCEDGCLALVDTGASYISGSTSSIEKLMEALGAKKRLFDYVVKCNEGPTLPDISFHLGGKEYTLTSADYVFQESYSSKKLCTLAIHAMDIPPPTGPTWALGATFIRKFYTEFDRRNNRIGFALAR
Method: Human recombinant renin (Proteos) in 50 mM MOPS pH 7.4, 100 mM NaCl, 0.002% Tween 20 at a final concentration of 100 pM is incubated with inhibitors from a 50 fold concentrated DMSO solution and 6 μM of an internally-quench fluorescent peptide: DNP-Lys-His-Pro-Phe-His-Leu-Val-Ile-His-D,L-Amp (SEQ ID NO: 1); Paschalidou K. et al., Biochem J, 2004, 382, 1031). The reactions take place in a Costar 384 well black plate (#3573) at 37° C. for 3 hours. Fluorescence is measured at times 0 and 3 hours with a SpectraMax Gemini EM reader set at an excitation wavelength of 328 nm and at an emission wavelength of 388 nm. Background fluorescence at t=0 is subtracted from the measurement at t=3 hours. Inhibitory activity of the compounds is expressed as IC50.

Renin in human plasma = target: T2, Renin in human plasma (Homo sapiens, UniProt P00797); experiment: Inhibition of renin in human plasma; format: biochemical; conditions: human EDTA plasma, recombinant renin added at 1 nM, 6 μM substrate, 37° C., 1 hour
T2 construct: purchased Proteos; host or cells: added to human EDTA-collected plasma
T2 sequence (P00797 67-406): T1 sequence (P00797 67-406)
Method: Human EDTA-collected plasma is rapidly thawed in warm water and centrifuged at 2900 g for 15 minutes at 4° C. The supernatant is collected and recombinant renin (Proteos) is added at a final concentration of 1 nM. The plasma is transferred to a Costar black 384 well plate (#3573). Renin inhibitors are added from a 17.5 fold concentrated DMSO solution and pre-incubated at 37° C. for 10 minutes. The internally-quench fluorescent peptide QX1520™-Lys-His-Pro-Phe-His-Leu-Val-Ile-His-Lys (5-FAM) (Anaspec) is diluted in 3M Tris pH 7.2, 200 mM EDTA and added to the plasma. The final concentrations are: 6 μM substrate, 342 mM Tris, 23 mM EDTA. The plate is incubated at 37° C. for 1 hour. The plate is read in a SpectraMax Gemini EM reader set at an excitation wavelength of 490 nm and an emission wavelength of 520 nm at times 0 and 1 hour. Background fluorescence at t=0 is subtracted from the measurement at t=1 hour. Inhibitory activity of the compounds is expressed as IC50.

IC50 (Human recombinant renin) [nM]	IC50 (Renin in human plasma) [nM]	SMILES
0.2	1.4	CC(=O)NCCc1ccccc1-c1ccc([C@@H]2CNCC[C@]23OCc2cc(F)c(F)cc23)c(C)c1 (racemic) [Example 4, rac-N-(2-{4′-[(1R,3′S)-5,6-Difluoro-3H-spiro[2-benzofuran-1,4′-piperidin]-3′-yl]-3′-methyl-2-biphenylyl}ethyl)acetamide]
1.6	18	COCCCc1ccccc1-c1ccc([C@@H]2CNCC[C@]23OCc2cn(C)c(=O)cc23)c(C)c1 (racemic) [Example 5, rac-(1R,3′S)-3′-[2′-(3-Methoxypropyl)-3-methyl-4-biphenylyl]-5-methyl-3,5-dihydro-6H-spiro[furo[3,4-c]pyridine-1,4′-piperidin]-6-one]
0.66	0.82	Cc1cc(-c2ccccc2CCNC(=O)CO)ccc1[C@H]1CNCC[C@@]12OC(=O)c1cc(F)c(F)cc12 [Example 11, N-(2-{4′-[(1R,3′S)-5,6-Difluoro-3-oxo-3H-spiro[2-benzofuran-1,4′-piperidin]-3′-yl]-3′-methyl-2-biphenylyl}ethyl)-2-hydroxyacetamide]
0.26	1	CC(=O)NCCc1ccccc1-c1onc([C@H]2CNCC[C@@]23OCc2cc(F)c(F)cc23)c1Br [Example 13, N-[2-(2-(4-Bromo-3-[(1R,3′R)-5,6-difluoro-3H-spiro[2-benzofuran-1,4′-piperidin]-3′-yl]-5-isoxazolyl)phenyl)ethyl]acetamide]
